# Reference: US20120015901A1, “METHODS AND PREPARATIONS FOR PROTECTING CRITICALLY ILL PATIENTS” (priority 2009, published 2012)
# What was measured:
# critically ill rabbits = assay: Toxicity of spermidine, sequential up-down allocation; assay type: in vivo, rabbit
# Procedure: The toxicity of spermidine was assessed using a sequential up-down allocation technique. The administered dose of spermidine was determined by the response of the previous animal to a higher or lower dose (with incremental/decremental steps per 300 mg/d; minimum dose 600 mg/d). When the animal survived until day 4, this was considered as absence of acute toxicity. Mortality during the first 3 days was considered as acute toxicity. When there was no acute toxic effect, the next included animal would receive 300 mg spermidine/day more. When there was an acute toxic effect, the next included animal would receive 300 mg/day less (until the starting dose as a minimum). […] The protocol was otherwise similar as in the experiments described previously.
# [1] = test system: chronologically aging wild type yeast cells; assay: Spontaneous mutation frequency and budding index; assay type: cell-based; settings: spermidine-treated cultures, 4 mM
# Procedure: Spontaneous mutation frequency was determined based on the appearance of mutants able to form colonies on agar plates containing 60 mg/l L-canavanine sulfate according to Fabrizio et al. (Fabrizio et al. (2004) J Cell Biol 166, 1055-1067). Mutation rates were calculated per 10^6 living (colony forming on YEPD) cells. Budding index was assessed by counting the percentage of budded cells after 10 seconds of sonication on ice using Sonifier 250 from Benson (Duty Cycle: 35; Output Control: 2.5) in micrographs of no more than 40 cells. For each sample, at least 500 cells were evaluated.
# autophagy = assay: Yeast autophagy measurements; assay type: cell-based
# Description: Autophagy was monitored either by vacuolar localization of Atg8p using fluorescence microscopy of cells expressing an EGFP-Atg8 fusion protein (T. Kirisako et al. (1999) J Cell Biol 147, 435-446.) or by alkaline phosphatase (ALP) activity according to Kissova et al. (Kissova at al. (2004) J Biol Chem 279, 39068-39074) using BY4741 wild type strain transformed with and selected for stable insertion of pTN9 HindIII fragment (confirmed by PCR). In order to correct for intrinsic (background) ALP activity, BY4741 (without pTN9) have been simultaneously processed and ALP activity subtracted. For generation of EGFP-ATG8 constructs see section on Molecular Biology.
# [2] = test system: general HAT activity in extracts of mammalian nuclei; assay: HAT activity assay, nuclear extract of HeLa-cells; assay type: biochemical; settings: extracts of mammalian nuclei (data not shown); spermidine 100 mM
# Procedure: For HAT-activity determination the commercially available HAT Activity Colorimetric Assay KIT from BioVision (Bio Vision K332-100) was employed. HAT assays were performed according to the manufacturer's protocol. In brief, assays were performed with each 15 μg of yeast nuclear extract or nuclear extract of HeLa-cells (Bio Vision K332-100-4), respectively. Spermidine was added at a final concentration of 100 mM 15 minutes after assay initiation. Development of tetrazolium dye was measured by absorption at 440 nm using a GeniosPro plate reader (Tecan). Background readings were done with samples without NADH generating enzyme, giving the nuclear extracts unspecific background activity and eliminate any possible negative effects of spermidine addition on the assay itself. […] Regression coefficients of R^2>0.99 were obtained. Calculated slopes of spermidine treated samples were compared to slopes of untreated samples which were set to a relative activity of 100%.
# [3] = test system: chronologically aging wild type yeast cells; assay: Yeast cell death and oxidative stress markers (DHE, Annexin V/PI); assay type: cell-based
# Description: For chronological aging experiments, cultures were inoculated from fresh overnight cultures to OD600 of 0.1 (˜1·10^6 cells/ml) with culture volume being 10% of flask volume and aliquots were taken out to perform survival plating at indicated time points (Herker, at al. (2004) J. Cell Biol. 164, 501-507. Survival at day 1 of wild type control cultures was set to 100% and other samples calculated accordingly. If not otherwise indicated, representative aging experiments are shown with at least three independent samples (as indicated) aged at the same time, which have been repeated at least twice with similar outcome. In case of experiments with Δspe1 (FIG. 24 A-E), all strains were inoculated to 5·10^4 cells/ml. Upon deletion of both IKI3 and SAS3 we observed slight aggregation of cells possibly due to a defect in late budding events. Therefore, for calculation of survival rates in experiments using Δiki3Δsas3, cell numbers of each sample were determined after two pulse of sonication on ice with Sonifier 250 from Benson (Duty Cycle: 35; Output Control: 2.5). Tests for apoptotic (TUNEL and Annexin V staining) and necrotic (PI staining) markers as well as markers for oxidative stress (DHE staining) were performed as described in Dod et al. (1982) Eur J Biochem 121, 401-405). For quantifications using flow cytometry (BD FACSAria), 30,000 cells were evaluated and analyzed with BD FACSDiva software. Spermidine (S4139, Sigma, Austria) and putrescine (P5780, Sigma, Austria; 1 mM final concentration) were added to stationary cultures at day 1 of the aging experiments (24 h after inoculation). 1 M aqueous stock solution of spermidine was stored in one use aliquots at −20° C. for no longer than 1 month. For adjustment of extracellular pH (pHex) to 6 (±0.5), the required amount of sodium hydroxide was added 30 h after inoculation. […]
# As a further marker for necrosis, nuclear release of the yeast HMGB1 homolog (Nhp6Ap) was monitored by epifluorescence microscopy of ectopically expressed chimeric fusion protein Nhp6Ap-EGFP. […]
# [4] = test system: histone acetyltransferase activity (HAT-activity); assay: HAT activity assay, yeast nuclear extract; assay type: biochemical; settings: extracts of isolated yeast nuclei; spermidine 100 mM
# Procedure: Yeast nuclei were isolated from 200 ml BY4741 wild type culture (grown for 24 h in SCD to stationary phase) as described previously (Buttner et al. (2007), Mol Cell 25, 233-246). Nuclear extract was prepared using nuclear extraction buffer from BioVision's Nuclear/Cytosol Fractionation Kit (Bio Vision, K266-25) without DTT addition, according to the manufacturer's protocol. Incubation time was doubled to 80 min with vortexing every 8 minutes. Protein concentration was determined via Bradford, giving yields of approximately 1 mg/ml protein. Yeast nuclear extract was immediately subjected to HAT activity assays.
# For HAT-activity determination the commercially available HAT Activity Colorimetric Assay KIT from BioVision (Bio Vision K332-100) was employed. HAT assays were performed according to the manufacturer's protocol. […] Development of tetrazolium dye was measured by absorption at 440 nm using a GeniosPro plate reader (Tecan). Background readings were done with samples without NADH generating enzyme, giving the nuclear extracts unspecific background activity and eliminate any possible negative effects of spermidine addition on the assay itself. […] Calculated slopes of spermidine treated samples were compared to slopes of untreated samples which were set to a relative activity of 100%.
# [5] = spermidine treatment during chronological aging
compound,measurement,setting,value
NCCCCNCCCN [spermidine],time of death after starting the spermidine infusion,"critically ill rabbits; continuous infusion of approximately 600 mg/day, both of two animals",28 h
same,dose without acute toxic effects,"critically ill rabbits; half of the toxic dose, highest dose of the pilot study",300 mg/day
same,dose with acute toxic effects,critically ill rabbits; mortality during the first 3 days,600 mg/day
same,dose with acute toxic effects,critically ill rabbits; per kg body weight,approx 200 mg/kg/day
same,dose without acute toxic effects,critically ill rabbits; per kg body weight,approximately 100 mg/kg/day
same,mutation frequency and budding index,[1],neither associated with an increased mutation frequency nor a higher budding index
same,autophagy,autophagy,strongly induces autophagy
same,general HAT activity,[2],efficiently inhibited
same,loss of membrane integrity (PI positivity and Annexin V+PI+),"[3]; after 18 days of aging, 50% without spermidine",less than 10%
same,"externalization of phosphatidylserine (Annexin V+PI− cells), early apoptotic marker",[3]; [5],remained largely unaltered
same,markers of necrosis and oxidative stress (DHE positivity),[3]; [5],drastically diminished
same,general HAT activity,[4],efficiently inhibited
